# Counter-ions that a name gives are not always drawn.
# How the values were obtained:
# [1] = biological target: PI3Kδ (p110δ/p85α) Recombinant Human Protein (Homo sapiens (Human), UniProt O00329); assay: PI3Kδ Scintillation Proximity Assay; format: biochemical
# Description: Example C. PI3Kδ Scintillation Proximity Assay
# [γ-^33P]ATP (10 mCi/mL) and Wheat Germ Agglutinin (WGA) YSi SPA Scintillation Beads was purchased from Perkin-Elmer (Waltham, Mass.). Lipid kinase substrate, D-myo-Phosphatidylinositol 4,5-bisphosphate (PtdIns(4,5)P2)D (+)-sn-1,2-di-O-octanoylglyceryl, 3-O-phospho linked (PIP2), CAS 204858-53-7, was purchased from Echelon Biosciences (Salt Lake City, Utah). PI3Kδ (p110δ/p85α) Recombinant Human Protein was purchased from Eurofins (St Charles, Mo.). ATP, MgCl2, DTT, EDTA, MOPS and CHAPS were purchased from Sigma-Aldrich (St. Louis, Mo.).
# The kinase reaction was conducted in polystyrene 384-well Greiner Bio-one white plate from Thermo Fisher Scientific in a final volume of 25 μL. Inhibitors were first diluted serially in DMSO and added to the plate wells before the addition of other reaction components. The final concentration of DMSO in the assay was 2%. The PI3Kδ assay was carried out at room temperature in 20 mM MOPS, pH 6.7, 10 mM MgCl2, 5 mM DTT and CHAPS 0.03%. Reactions were initiated by the addition of ATP, the final reaction mixture consisted of 20 μM PIP2, 2 μM ATP, 0.5 μCi [γ-^33P] ATP, 3.4 nM PI3Kδ. Reactions were incubated for 120 min and terminated by the addition of 40 μL SPA beads suspended in quench buffer: 163 mM potassium phosphate pH 7.8, 20% glycerol, 25 mM EDTA. The final concentration of SPA beads is 1.0 mg/mL. After the plate sealing, plates were shaken overnight at room temperature and centrifuged at 1500 rpm for 10 min, the radioactivity of the product was determined by scintillation counting on Topcount (Perkin-Elmer). IC50 determination was performed by fitting the curve of percent of the solvent control activity versus the log of the inhibitor concentration using the GraphPad Prism 6.0 software.
# [2] = biological target: PI3Kγ (p110γ) Recombinant Human Protein (Homo sapiens (Human), UniProt P48736); assay: PI3K-γ Scintillation Proximity Assay; format: biochemical; settings: read-out: PI3Kγ IC50
# PI3Kγ (p110γ) Recombinant Human Protein, sequence (P48736 whole entry): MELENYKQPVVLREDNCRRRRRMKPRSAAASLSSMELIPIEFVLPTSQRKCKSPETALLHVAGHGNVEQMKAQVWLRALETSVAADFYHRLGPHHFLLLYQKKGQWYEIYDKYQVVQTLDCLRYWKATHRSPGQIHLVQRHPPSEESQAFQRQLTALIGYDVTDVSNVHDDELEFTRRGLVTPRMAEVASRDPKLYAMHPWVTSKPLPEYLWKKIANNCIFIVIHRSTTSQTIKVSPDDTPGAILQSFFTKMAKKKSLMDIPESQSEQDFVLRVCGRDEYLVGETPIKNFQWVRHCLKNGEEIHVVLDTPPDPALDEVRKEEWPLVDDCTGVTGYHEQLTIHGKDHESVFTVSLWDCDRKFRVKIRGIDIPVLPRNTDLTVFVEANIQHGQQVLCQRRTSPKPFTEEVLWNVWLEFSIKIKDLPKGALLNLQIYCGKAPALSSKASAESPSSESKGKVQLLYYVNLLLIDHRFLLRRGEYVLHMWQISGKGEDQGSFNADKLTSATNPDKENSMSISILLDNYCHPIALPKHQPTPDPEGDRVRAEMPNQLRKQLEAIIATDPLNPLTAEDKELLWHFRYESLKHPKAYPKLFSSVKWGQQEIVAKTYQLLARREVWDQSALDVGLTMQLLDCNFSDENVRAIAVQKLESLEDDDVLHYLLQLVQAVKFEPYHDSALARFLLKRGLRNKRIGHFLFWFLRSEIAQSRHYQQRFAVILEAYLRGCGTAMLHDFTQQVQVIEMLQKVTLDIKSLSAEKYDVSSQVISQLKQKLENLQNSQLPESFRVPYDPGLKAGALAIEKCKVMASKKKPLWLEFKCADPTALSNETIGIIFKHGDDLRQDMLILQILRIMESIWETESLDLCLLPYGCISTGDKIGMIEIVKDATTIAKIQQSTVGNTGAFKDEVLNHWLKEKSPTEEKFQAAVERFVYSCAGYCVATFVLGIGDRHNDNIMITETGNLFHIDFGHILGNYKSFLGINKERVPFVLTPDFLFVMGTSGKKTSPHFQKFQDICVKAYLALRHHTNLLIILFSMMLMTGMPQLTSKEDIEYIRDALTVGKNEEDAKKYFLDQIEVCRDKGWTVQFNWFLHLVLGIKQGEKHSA
# Procedure, shortened: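 Radiometric SPA readout: […] bound to WGA beads after overnight shaking, IC50 derived from % activity of DMSO control. Reaction used human p110γ, 2 μM ATP, 20 μM PIP2, pH 6.7 MOPS buffer with MgCl2, DTT, CHAPS, 2% DMSO, room temperature.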
# PI3Kδ (p110δ/p85α) Recombinant Human Protein, sequence (O00329 whole entry): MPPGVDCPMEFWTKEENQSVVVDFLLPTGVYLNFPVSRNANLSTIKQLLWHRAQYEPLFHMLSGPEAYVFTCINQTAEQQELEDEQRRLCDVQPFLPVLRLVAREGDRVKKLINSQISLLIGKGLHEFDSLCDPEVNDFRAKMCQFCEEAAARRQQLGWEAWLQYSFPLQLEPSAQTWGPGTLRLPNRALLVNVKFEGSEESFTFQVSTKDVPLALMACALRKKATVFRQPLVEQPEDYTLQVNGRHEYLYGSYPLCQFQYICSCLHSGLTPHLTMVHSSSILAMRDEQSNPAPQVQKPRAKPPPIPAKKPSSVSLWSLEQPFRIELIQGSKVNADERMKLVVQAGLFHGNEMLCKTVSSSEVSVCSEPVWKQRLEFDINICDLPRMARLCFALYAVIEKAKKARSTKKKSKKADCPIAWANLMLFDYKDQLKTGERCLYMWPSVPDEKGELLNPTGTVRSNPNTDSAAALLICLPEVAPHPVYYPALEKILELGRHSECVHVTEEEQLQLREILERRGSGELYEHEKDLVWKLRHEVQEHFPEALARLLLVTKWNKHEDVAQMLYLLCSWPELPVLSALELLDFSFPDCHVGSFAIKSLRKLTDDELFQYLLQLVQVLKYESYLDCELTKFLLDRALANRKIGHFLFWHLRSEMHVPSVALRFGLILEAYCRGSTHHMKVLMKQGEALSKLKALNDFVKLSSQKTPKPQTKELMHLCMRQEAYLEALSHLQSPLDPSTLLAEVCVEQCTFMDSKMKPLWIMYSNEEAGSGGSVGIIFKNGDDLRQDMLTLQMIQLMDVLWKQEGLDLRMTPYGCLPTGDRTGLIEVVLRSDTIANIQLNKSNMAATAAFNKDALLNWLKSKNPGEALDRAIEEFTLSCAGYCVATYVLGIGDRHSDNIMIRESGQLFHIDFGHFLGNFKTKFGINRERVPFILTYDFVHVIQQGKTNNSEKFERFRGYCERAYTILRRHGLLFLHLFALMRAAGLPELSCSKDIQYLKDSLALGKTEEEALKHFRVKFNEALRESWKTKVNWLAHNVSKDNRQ
# PI3Kδ (p110δ/p85α) Recombinant Human Protein, sequence (P27986 whole entry partner): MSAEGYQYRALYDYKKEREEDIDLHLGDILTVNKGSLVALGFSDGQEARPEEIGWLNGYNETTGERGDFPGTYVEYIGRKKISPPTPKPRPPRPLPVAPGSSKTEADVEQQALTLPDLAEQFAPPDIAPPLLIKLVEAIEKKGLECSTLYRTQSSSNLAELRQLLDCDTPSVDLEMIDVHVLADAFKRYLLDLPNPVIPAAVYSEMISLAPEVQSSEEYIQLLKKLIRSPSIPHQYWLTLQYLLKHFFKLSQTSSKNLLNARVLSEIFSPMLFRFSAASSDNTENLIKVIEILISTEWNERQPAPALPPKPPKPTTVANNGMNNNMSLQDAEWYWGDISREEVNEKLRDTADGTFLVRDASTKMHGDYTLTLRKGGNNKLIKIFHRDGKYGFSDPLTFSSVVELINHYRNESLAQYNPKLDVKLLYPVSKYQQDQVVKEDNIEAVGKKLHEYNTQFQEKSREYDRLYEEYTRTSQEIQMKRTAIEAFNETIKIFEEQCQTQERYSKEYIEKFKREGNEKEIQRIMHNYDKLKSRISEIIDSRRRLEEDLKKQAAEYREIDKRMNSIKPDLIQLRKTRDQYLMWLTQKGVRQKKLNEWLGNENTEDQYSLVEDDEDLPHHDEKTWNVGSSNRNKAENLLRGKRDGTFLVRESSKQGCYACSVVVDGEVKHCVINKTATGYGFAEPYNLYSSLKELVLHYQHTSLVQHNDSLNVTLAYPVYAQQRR
IC50 [1] [nM],IC50 [2] [nM],SMILES
500 to 2000,< 100,"Cc1ccc(S(=O)(=O)N2CC3C(O)C2CN3C)cc1-c1cnc2c(N)nc(C(F)(F)F)nn12 (centres unmarked) [Example 352, 2-((3-(4-amino-2-(trifluoromethyl)imidazo[2,1-f][1,2,4]triazin-7-yl)-4-methylphenyl)sulfonyl)-5-methyl-2,5-diazabicyclo[2.2.1]heptan-7-ol]"
100 to 500,< 100,"Cc1ccc(-c2cnc3c(N)ncnn23)cc1S(=O)(=O)NC12CCC(C#N)(C1)C2 [Example 369, 5-(4-Aminoimidazo[1,2-f][1,2,4]triazin-7-yl)-N-(4-cyanobicyclo[2.1.1]hexan-1-yl)-2-methylbenzenesulfonamide trifluoroacetate salt]"
500 to 2000,< 100,"CCN1CC2C(O)C1CN2S(=O)(=O)c1ccc(C)c(-c2cnc3c(N)nc(C(F)(F)F)nn23)c1 (centres unmarked) [Example 349, 2-((3-(4-amino-2-(trifluoromethyl)imidazo[2,1-f][1,2,4]triazin-7-yl)-4-methylphenyl)sulfonyl)-5-ethyl-2,5-diazabicyclo[2.2.1]heptan-7-ol]"
500 to 2000,< 100,Cc1ccc(S(=O)(=O)N2CCC[C@@H]2CO)cc1-c1cnc2c(N)ncnn12 [Example 152]
> 2000,100 to 500,"Cc1ccc(S(=O)(=O)N(CCC#N)C2CCCCC2)cc1-c1cnc2c(N)ncnn12 [Example 173, 3-(4-aminoimidazo[2,1-f][1,2,4]triazin-7-yl)-N-(2-cyanoethyl)-N-cyclohexyl-4-methylbenzenesulfonamide]"
> 2000,100 to 500,"Cc1ccc(S(=O)(=O)NCC2(C)COC2)cc1-c1cnc2c(N)cccn12 [Example 3, 3-(8-Aminoimidazo[1,2-a]pyridin-3-yl)-4-methyl-N-[(3-methyloxetan-3-yl)methyl]benzenesulfonamide trifluoroacetate]"
100 to 500,100 to 500,"Cc1ccc(S(C)(=O)=O)cc1-c1cnc2c(N)nc(C(=O)NCCCn3cccn3)cn12 [Example 457, N-(3-(1H-pyrazol-1-yl)propyl)-8-amino-3-(2-methyl-5-(methylsulfonyl)phenyl)imidazo[1,2-a]pyrazine-6-carboxamide trifluoroacetate salt]"
100 to 500,100 to 500,"Cc1ccc(S(C)(=O)=O)cc1-c1cnc2c(N)nc(C(=O)NCC3CCC(C(F)(F)F)CC3)cn12 (mixture of isomers) [Example 456, 8-amino-3-(2-methyl-5-(methylsulfonyl)phenyl)-N-((4-(trifluoromethyl)cyclohexyl)methyl)imidazo[1,2-a]pyrazine-6-carboxamide trifluoroacetate salt (1:1 cis/trans isomers)]"
500 to 2000,< 100,"Cc1ccc(S(=O)(=O)N2CCC(C)(C#N)C2)cc1-c1cnc2c(N)ncnn12 (centres unmarked) [Example 200, 1-((3-(4-Aminoimidazo[2,1-f][1,2,4]triazin-7-yl)-4-methylphenyl)sulfonyl)-3-methylpyrrolidine-3-carbonitrile]"
500 to 2000,< 100,"Cc1ccc(S(=O)(=O)N2CCCC(NC(=O)C3CC3)C2)cc1-c1cnc2c(N)nc(C(F)(F)F)cn12 (centres unmarked) [Example 517, N-(1-((3-(8-Amino-6-(trifluoromethyl)imidazo[1,2-a]pyrazin-3-yl)-4-methylphenyl)sulfonyl)piperidin-3-yl)cyclopropanecarboxamide trifluoroacetate]"
500 to 2000,< 100,"Cc1ccc(S(=O)(=O)N2CCOC3CNCC32)cc1-c1cnc2c(N)nc(C(F)(F)F)cn12 (centres unmarked) [Example 304, 3-(5-((hexahydropyrrolo[3,4-b][1,4]oxazin-4(4aH)-yl)sulfonyl)-2-methylphenyl)-6-(trifluoromethyl)imidazo[1,2-a]pyrazin-8-amine]"
100 to 500,100 to 500,"Cc1cc(C)c(S(=O)(=O)NCC(C)(C)O)cc1-c1cnc2c(N)nccn12 [Example 361, 5-(8-aminoimidazo[1,2-a]pyrazin-3-yl)-N-(2-hydroxy-2-methylpropyl)-2,4-dimethylbenzenesulfonamide]"
< 100,100 to 500,"COc1ccc(-c2cnc3c(N)nccn23)cc1S(=O)(=O)N[C@H]1CC[C@H](O)CC1 [Example 43, 5-(8-Aminoimidazo[1,2-a]pyrazin-3-yl)-N-(trans-4-hydroxycyclohexyl)-2-methoxybenzenesulfonamide]"
500 to 2000,< 100,"Cc1ccc(S(=O)(=O)N2CC(C)OCC2(C)C)cc1-c1cnc2c(N)ncnn12 (centres unmarked) [Example 158, 7-(2-methyl-5-((2,5,5-trimethylmorpholino)sulfonyl)phenyl)imidazo[2,1-f][1,2,4]triazin-4-amine]"
500 to 2000,< 100,"Cc1ccc(S(=O)(=O)N[C@]2(C)C[C@H](O)C2)cc1-c1cnc2c(N)ncnn12 [Example 191, 3-(4-aminoimidazo[2,1-f][1,2,4]triazin-7-yl)-N-((1s,3s)-3-hydroxy-1-methylcyclobutyl)-4-methylbenzenesulfonamide]"
500 to 2000,< 100,"CCN(CC1CCCO1)S(=O)(=O)c1ccc(C)c(-c2cnc3c(N)ncnn23)c1 (centres unmarked) [Example 179, 3-(4-aminoimidazo[2,1-f][1,2,4]triazin-7-yl)-N-ethyl-4-methyl-N-((tetrahydrofuran-2-yl)methyl)benzenesulfonamide]"
500 to 2000,< 100,"Cc1c(F)cc(S(=O)(=O)NCC(C)(C)O)cc1-c1cnc2c(N)nc(CO)nn12 [Example 470, 3-(4-Amino-2-(hydroxymethyl)imidazo[2,1-f][1,2,4]triazin-7-yl)-5-fluoro-N-(2-hydroxy-2-methylpropyl)-4-methylbenzenesulfonamide]"
> 2000,500 to 2000,"COCCN1CCCC(NC(=O)c2cn3c(-c4cc(S(C)(=O)=O)ccc4C)cnc3c(N)n2)C1 (centres unmarked) [Example 458, 8-Amino-N-(1-(2-methoxyethyl)piperidin-3-yl)-3-(2-methyl-5-(methylsulfonyl)phenyl)imidazo[1,2-a]pyrazine-6-carboxamide trifluoroacetate salt]"
500 to 2000,100 to 500,"COc1cccc(F)c1-c1cn2c(-c3cc(S(C)(=O)=O)ccc3C)cnc2c(N)n1 [Example 478, 6-(2-Fluoro-6-methoxyphenyl)-3-(2-methyl-5-(methylsulfonyl)phenyl)imidazo[1,2-a]pyrazin-8-amine trifluoroacetate]"
500 to 2000,< 100,"Cc1ccc(S(=O)(=O)[C@@H]2CCC[C@H](O)C2)cc1-c1cnc2c(N)ncnn12 (relative stereo) [Example 501, cis-3-((3-(4-Aminoimidazo[2,1-f][1,2,4]triazin-7-yl)-4-methylphenyl)sulfonyl)cyclohexan-1-ol]"
500 to 2000,< 100,"COCC1(N(C)S(=O)(=O)c2ccc(C)c(-c3cnc4c(N)ncnn34)c2)CC1 [Example 177, 3-(4-aminoimidazo[2,1-f][1,2,4]triazin-7-yl)-N-(1-(methoxymethyl)cyclopropyl)-N,4-dimethylbenzenesulfonamide]"
100 to 500,< 100,"Cc1ccc(S(=O)(=O)N2CCCCC23CC3)cc1-c1cnc2c(N)ncnn12 [Example 149, 7-(5-((4-azaspiro[2.5]octan-4-yl)sulfonyl)-2-methylphenyl)imidazo[2,1-f][1,2,4]triazin-4-amine]"
500 to 2000,< 100,"Cc1ccc(S(=O)(=O)N2CCC3(CC2)COC(=O)N3)cc1-c1cnc2c(N)ncnn12 [Example 193, 8-((3-(4-Aminoimidazo[2,1-f][1,2,4]triazin-7-yl)-4-methylphenyl)sulfonyl)-3-oxa-1,8-diazaspiro[4.5]decan-2-one]"
500 to 2000,< 100,"Cc1ccc(S(=O)(=O)N2CCCC2c2c(C)noc2C)cc1-c1cnc2c(N)nc(C(F)(F)F)cn12 (centres unmarked) [Example 300, 3-(5-((2-(3,5-dimethylisoxazol-4-yl)pyrrolidin-1-yl)sulfonyl)-2-methylphenyl)-6-(trifluoromethyl)imidazo[1,2-a]pyrazin-8-amine]"

SMILES,IC50 [1] [nM],IC50 [2] [nM]
"Cc1ccc(S(=O)(=O)N2C3CCC2CC(O)C3)cc1-c1cnc2c(N)ncnn12 (centres unmarked) [Example 120, 8-{[3-(4-aminoimidazo[2,1-f][1,2,4]triazin-7-yl)-4-methylphenyl]sulfonyl}-8-azabicyclo[3.2.1]octan-3-ol]",100 to 500,< 100
